# From ChEMBL document CHEMBL1201862, “PubChem BioAssay data set” (2004)
# Calls of active or inactive are those of the source.
# Experiments:
# HEK293 [1] = experiment: optical interference in Abeta FP readout, dose response, artefact control for IDE activator project, biochemical, fluorescence polarization (AID 588442); type: functional, cell-based; conditions: Homo sapiens
# HEK293 [2] = experiment: HEK cell cytotoxicity by LDH release, dose response, cytotoxicity control for IDE activator project, fluorescence, HEK cells (AID 588440); type: functional, cell-based; conditions: Homo sapiens;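 also: cytotoxicity by LDH release measuring loss of membrane integrity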
# Insulin-degrading enzyme [3] = target: T1, Insulin-degrading enzyme (Homo sapiens, UniProt P14735); experiment: activators of recombinant IDE enzyme, dose response, counter-screen for IDE activator project, biochemical, fluorescence polarization (AID 588681)
# T1 sequence (P14735 whole entry): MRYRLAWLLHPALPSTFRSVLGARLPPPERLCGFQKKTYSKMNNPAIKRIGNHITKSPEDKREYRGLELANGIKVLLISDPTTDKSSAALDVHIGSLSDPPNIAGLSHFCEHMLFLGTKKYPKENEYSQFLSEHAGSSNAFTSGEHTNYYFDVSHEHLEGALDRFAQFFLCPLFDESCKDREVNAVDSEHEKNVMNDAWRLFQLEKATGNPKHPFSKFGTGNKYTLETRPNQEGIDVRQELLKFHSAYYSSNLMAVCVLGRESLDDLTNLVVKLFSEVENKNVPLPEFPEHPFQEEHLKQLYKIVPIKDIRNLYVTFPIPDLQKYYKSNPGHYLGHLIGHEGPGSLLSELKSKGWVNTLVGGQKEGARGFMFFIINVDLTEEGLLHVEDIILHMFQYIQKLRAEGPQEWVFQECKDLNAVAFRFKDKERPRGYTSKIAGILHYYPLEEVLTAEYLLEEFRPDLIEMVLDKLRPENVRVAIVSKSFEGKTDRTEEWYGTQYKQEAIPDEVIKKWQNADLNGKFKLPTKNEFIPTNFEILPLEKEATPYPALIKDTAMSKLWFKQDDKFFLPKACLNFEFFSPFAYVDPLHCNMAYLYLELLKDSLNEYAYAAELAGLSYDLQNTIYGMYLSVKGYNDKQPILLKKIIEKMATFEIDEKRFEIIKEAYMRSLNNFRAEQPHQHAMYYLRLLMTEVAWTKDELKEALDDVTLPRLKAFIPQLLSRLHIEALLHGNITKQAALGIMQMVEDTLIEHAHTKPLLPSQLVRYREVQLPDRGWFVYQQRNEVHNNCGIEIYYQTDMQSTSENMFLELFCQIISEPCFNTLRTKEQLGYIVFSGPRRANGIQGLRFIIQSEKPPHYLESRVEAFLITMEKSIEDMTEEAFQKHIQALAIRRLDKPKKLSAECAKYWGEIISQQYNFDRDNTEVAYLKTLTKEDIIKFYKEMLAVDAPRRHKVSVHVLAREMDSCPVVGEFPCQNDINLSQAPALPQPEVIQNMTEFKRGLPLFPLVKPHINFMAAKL
# Insulin-degrading enzyme [4] = target: T1, Insulin-degrading enzyme; experiment: activators of endogenous IDE in HEK cells, dose response, cell-based, fluorescence polarization (AID 588439); type: functional
# [5] = target: T2, Sentrin-specific protease 8 (Homo sapiens, UniProt Q96LD8); experiment: SENP8 protease inhibitors, SAR follow-up, biochemical, luminescence (AID 504501); type: functional
# T2 sequence (Q96LD8 whole entry): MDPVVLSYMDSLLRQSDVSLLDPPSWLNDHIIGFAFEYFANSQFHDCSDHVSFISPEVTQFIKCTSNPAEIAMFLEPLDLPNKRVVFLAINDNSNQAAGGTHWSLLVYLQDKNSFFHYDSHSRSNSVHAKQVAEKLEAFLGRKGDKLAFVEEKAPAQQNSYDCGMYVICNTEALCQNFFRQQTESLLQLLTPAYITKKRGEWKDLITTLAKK
# [6] = target: T3, Sentrin-specific protease 6 (Homo sapiens, UniProt Q9GZR1); experiment: SAR Analysis of small molecule inhibitors of Sentrin-specific protease 6 (SENP6) using a Luminescent assay. [Related pubchem assays (depositor defined):AID2582, AID2599]; type: functional
# T3 sequence (Q9GZR1 whole entry): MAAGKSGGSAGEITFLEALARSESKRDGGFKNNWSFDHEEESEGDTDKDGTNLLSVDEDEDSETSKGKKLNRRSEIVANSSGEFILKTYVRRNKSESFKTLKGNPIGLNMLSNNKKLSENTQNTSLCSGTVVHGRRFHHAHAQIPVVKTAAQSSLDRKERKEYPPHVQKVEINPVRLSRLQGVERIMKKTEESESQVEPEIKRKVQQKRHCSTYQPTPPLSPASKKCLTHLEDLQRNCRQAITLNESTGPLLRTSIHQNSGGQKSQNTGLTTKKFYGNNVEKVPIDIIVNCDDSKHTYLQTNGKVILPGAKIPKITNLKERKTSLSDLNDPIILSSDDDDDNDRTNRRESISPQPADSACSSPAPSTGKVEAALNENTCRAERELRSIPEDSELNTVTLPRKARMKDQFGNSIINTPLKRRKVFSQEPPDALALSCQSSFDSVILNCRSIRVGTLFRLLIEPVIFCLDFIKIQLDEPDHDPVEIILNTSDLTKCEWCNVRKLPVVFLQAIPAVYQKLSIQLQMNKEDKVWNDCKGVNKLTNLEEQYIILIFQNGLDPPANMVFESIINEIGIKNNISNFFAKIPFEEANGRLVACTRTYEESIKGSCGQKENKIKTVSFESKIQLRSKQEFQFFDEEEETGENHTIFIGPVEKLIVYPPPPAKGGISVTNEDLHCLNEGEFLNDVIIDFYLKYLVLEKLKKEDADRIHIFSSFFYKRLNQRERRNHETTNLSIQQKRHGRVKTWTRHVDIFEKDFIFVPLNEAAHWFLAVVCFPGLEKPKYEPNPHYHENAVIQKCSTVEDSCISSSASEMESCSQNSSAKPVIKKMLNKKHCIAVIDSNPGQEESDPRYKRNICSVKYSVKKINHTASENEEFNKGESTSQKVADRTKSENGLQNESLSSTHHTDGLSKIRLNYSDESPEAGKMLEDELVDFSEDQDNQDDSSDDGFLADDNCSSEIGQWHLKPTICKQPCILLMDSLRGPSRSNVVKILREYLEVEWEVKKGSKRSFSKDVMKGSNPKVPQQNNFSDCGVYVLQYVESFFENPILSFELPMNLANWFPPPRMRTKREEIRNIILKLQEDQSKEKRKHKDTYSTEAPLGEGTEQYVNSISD
# [7] = target: T4, Sentrin-specific protease 7 (Homo sapiens, UniProt Q9BQF6); experiment: SENP7 protease inhibitors, SAR follow-up, biochemical, luminescence (AID 504497); type: functional
# T4 sequence (Q9BQF6 whole entry): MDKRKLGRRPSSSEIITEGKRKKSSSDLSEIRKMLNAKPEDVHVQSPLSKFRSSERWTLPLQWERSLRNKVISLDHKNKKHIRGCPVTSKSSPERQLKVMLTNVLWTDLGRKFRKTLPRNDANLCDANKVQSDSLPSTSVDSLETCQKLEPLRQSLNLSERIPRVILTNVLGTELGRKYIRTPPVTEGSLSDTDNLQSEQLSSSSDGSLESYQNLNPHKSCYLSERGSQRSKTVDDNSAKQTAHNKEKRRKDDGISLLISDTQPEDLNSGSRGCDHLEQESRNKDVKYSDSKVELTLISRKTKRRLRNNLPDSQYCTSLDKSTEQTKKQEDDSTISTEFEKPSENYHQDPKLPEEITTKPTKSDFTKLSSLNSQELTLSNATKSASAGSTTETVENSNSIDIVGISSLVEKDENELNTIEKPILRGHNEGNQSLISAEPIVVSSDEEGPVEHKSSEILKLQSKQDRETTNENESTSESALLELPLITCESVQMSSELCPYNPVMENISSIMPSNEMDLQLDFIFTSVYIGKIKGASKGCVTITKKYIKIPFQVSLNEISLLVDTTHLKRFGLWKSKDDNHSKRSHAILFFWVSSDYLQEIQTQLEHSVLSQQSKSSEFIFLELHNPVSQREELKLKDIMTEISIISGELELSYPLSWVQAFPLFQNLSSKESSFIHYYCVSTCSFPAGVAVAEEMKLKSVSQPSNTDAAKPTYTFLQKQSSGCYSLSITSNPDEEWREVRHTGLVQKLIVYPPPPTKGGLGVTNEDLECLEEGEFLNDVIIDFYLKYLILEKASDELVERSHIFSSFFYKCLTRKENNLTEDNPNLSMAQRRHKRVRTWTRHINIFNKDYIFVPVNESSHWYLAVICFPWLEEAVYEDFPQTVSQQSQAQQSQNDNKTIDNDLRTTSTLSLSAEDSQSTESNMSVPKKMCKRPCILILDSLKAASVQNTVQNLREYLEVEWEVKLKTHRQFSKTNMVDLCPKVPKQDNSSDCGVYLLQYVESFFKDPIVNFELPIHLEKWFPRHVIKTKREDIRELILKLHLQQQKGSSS
# Caspase-3 = target: T5, Caspase-3 (Homo sapiens, UniProt P42574); experiment: SAR Analysis of small molecule inhibitors of Sentrin-specific proteases (SENPs) using a Caspase-3 Selectivity assay. [Related pubchem assays (depositor defined):AID2540, AID2599, AID434973, AID489001]; type: functional
# T5 sequence (P42574 whole entry): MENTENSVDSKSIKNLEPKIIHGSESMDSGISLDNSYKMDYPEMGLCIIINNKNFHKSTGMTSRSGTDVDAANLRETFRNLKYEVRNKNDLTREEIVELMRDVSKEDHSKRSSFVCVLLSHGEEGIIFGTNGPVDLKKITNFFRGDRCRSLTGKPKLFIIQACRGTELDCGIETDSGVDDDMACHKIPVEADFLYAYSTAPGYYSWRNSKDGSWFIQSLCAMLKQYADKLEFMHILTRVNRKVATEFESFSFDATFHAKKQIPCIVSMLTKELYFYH
IC50 [6],IC50 [7],IC50 (Caspase-3),SMILES,EC50 (HEK293 [1]),IC50 (HEK293 [2]),EC50 (Insulin-degrading enzyme [3]),EC50 (Insulin-degrading enzyme [4]),IC50 [5]
,,,CCOC(=O)c1cccc(P(C)(C)=O)c1,> 54.7 µM (inactive),> 89.1 µM (inactive),> 54.7 µM (inactive),> 54.7 µM (inactive),
> 99 µM (inactive),> 99 µM (inactive),> 99 µM (inactive),NS(=O)(=O)c1ccc(CCNC(=O)c2sc3cc(Cl)ccc3c2Cl)cc1,,,,,> 99 µM (inactive)
